Tested on: human colorectal adenocarcinoma cells (DLD-1)
Test: MTT anti-proliferative assay, DLD-1 (Examples 3-12)
Assay type: cell-based
Details: for % stim. / Mean OD (570 nm) / inhibition at 200 µg/mL / % inhibition: 200 μg/ml; for % stim. / Mean OD (570 nm) / % inhibition: 48 hours
Protocol: 5-phenylpenta-2,4-dienoic acid was assessed for its ability to modulate the viability and proliferation of human colorectal adenocarcinoma cells (DLD-1); human colon cancer cell line (HCT-116); human gastric carcinoma cell line (NCI-N87); and human oesophageal squamous cell carcinoma cell line (KYSE-30) as assessed by the MTT assay. The positive control, 5-fluorouracil (5-FU) was included at three concentrations; in addition to an unsupplemented cell control as a negative control in the study. The 5-phenylpenta-2,4-dienoic acid was a genuine standard with chemical structure confirmed by NMR and MS.
The four human gastrointestinal carcinoma cell lines were revived from cryostorage and cultured in the presence of the test and reference samples. An MTT assay was then performed on the cultures to determine the effect of the samples on the cell viability and proliferation.
The test sample 5-phenylpenta-2,4-dienoic acid, and all other test samples in Examples 4-12 (except tectochrysln) were Initially dissolved in pure ethanol to a concentration of around 13.35 mg/ml. Tectochrysin was initially dissolved in triethylene glycol mono-methyl ether to the same concentration. Working solutions were then prepared from the stock solutions by dilution to 15% ethanol/Hanks Balanced Salt Solution (ETOH)/HBSS to a concentration of 2 mg/mL solids. In the assay the final concentration of the samples was 200 μg/ml with a final EtOH concentration of 1.5%. Final concentrations of test compounds and propolis prepared as above are as noted in Example 3.
• 1. Human colorectal adenocarcinoma cells (ATCC CCI-221, DLD-1)(ATCC, Bethesda, Md., USA) • 2. Human gastric carcinoma cells (ATCC CRL-5822, NCI-N87)(ATCC, Bethesda, Md., USA) • 3. Human oesophageal squamous cell carcinoma (ECACC, KYSE-30)(Sigma Aldrich, Auckland, NZ) • 4. Human colon carcinoma cells (ECACC HCT-116)(Sigma Aldrich, Auckland, NZ) • 5. Penicillin-streptomycin solution: 10000 units/ml penicillin, 10 mg/ml streptomycin in 0.9% NaCl (Sigma Cat #P-0781). Stored at −20° C. • 6. For DLD-1 cells: DMEM culture medium (Invitrogen Cat #12100-046). Stored at 4° C. • 7. For NCI-N87 cells: RPMI-1640 medium modified to contain 2 mM L-glutamine, 10 mM HEPES, 1 mM sodium pyruvate, 4500 mg/L glucose, and 1500 mg/L sodium bicarbonate (Sigma R6504). Stored at 4° C. • 8. For KYSE-410 cells: RPMI-1640 medium modified to contain 2 mM L-glutamine (Sigma R6504). Stored at 4° C. • 9. For HCT-116 cells: McCoy's 5A medium modified to contain 2 mM L-glutamine (Sigma M48792). Stored at 4° C. • 10. Trypsin-EDTA solution: 0.25% Trypsin/EDTA, Invitrogen Cat#15400054 (×10 in stock). • 11. Phosphate buffered saline (PBS) (Prepared by TBL). • 12. Hanks Balanced Salt Solution (HBSS). (GIBCO Cat No. 14185-052). Stored at 4° C. • 13. Foetal Bovine Serum (GIBCO Cat #10091-148). Stored at −20° C. • 14. MTT Reagent: 100 mg/vial, (SIGMA Cat. No. M-2128) dissolved in PBS at 10 mg/ml and stored at −20° C. 5 mg/ml MTT solution will be prepared in PBS and stored at 4° C. as working solution. • 15. MTT lysis buffer: 10% sodium dodecyl sulphate (SDS)/45% Dimethyl Formamide (20 g SDS will be dissolved in 100 ml of double-distilled water (DDW), and 90 ml of Dimethyl Formamide will be added to the SDS solution). The pH will be adjusted to 4.7 by glacial acetic acid, and DDW added up to a final volume of 200 ml. • 16. 5-Fluorouracil (5-FU), (Sigma Cat. No. F-6627). Three working solutions will be prepared at 19.5 μg/ml. 6.5 μg/ml and 1.95 μg/ml dissolved in 15% Ethanol/HBSS. Final concentrations will be 1.95 μg/ml (15 μM), 0.65 μg/ml (5 μM) and 0.195 μg/ml (1.5 μM).
The medium for the propagation of the each of the cells lines is given above. Each medium was prepared following the ATCC/ECACC instructions and supplemented with penicillin-streptomycin solution (10 ml per litre). FBS (at 10%) was added just before use.
• 1. […]

Compound	% stim. [%]	Mean OD (570 nm)	inhibition at 200 µg/mL (Homo sapiens, DLD-1, 48 h) [%]	inhibition at 0.195 µg/mL (Homo sapiens, DLD-1, 48 h, 0.195 μg/ml) [%]	inhibition at 0.65 µg/mL (Homo sapiens, DLD-1, 48 h, 0.65 μg/ml) [%]	inhibition at 1.95 µg/mL (Homo sapiens, DLD-1, 48 h, 1.95 μg/ml) [%]	% inhibition [%]
O=C1C[C@@H](c2ccccc2)Oc2cc(O)cc(O)c21 [Pinocembrin, reference compound]	0	0.0341	91.7	–	–	–	–
O=c1[nH]cc(F)c(=O)[nH]1 [Sample 5-FU, 5-fluorouracil, reference compound]	–	–	–	26.5	37.3	41.6	–
COc1cc(O)c2c(=O)cc(-c3ccccc3)oc2c1 [Tectochrysin, tectochrysin]	–	–	–	–	–	–	92.8
O=C(O)/C=C/c1ccc(O)cc1 [p-coumaric acid, para-coumaric acid, reference compound]	0	0.3531	14.3	–	–	–	14.34
